{"source": "patent US4808590A", "about": "(priority 1988, dated 1989)", "origin": "cited, not measured here", "conditions": "British Patent Specification Nos. 1,078,049 and 932,875; cited from earlier work"}
{"smiles": "C=C1C[C@](OC)([C@H](O)C(=O)N[C@@H](OC)[C@@H]2C[C@@H](O)C(C)(C)[C@@H](C[C@@H](COC)OC)O2)O[C@H](C)[C@@H]1C", "note": "[Pederin]", "values": [{"measurement": "antimitotic activity", "result": "shows antimitotic activity"}]}
